# In US20020137929A1, “1 - (3-heterocyclylphenyl) isothiourea, -isourea, -guanidine and -amidine herbicidal agents” (Intellectual Property Department, BASF Aktiengesellschaft, priority 1998, published 2002):
# How the values were obtained:
# SETVI (Foxtail, Green) = test: Postemergence herbicidal evaluation; format: in vivo, Setaria viridis
# In short: (§1)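 Two-week-old seedlings sprayed with compound in 50/50 acetone/water plus 0.5% TWEEN 20, at about 0.0156 to 0.500 kg/ha, nozzle at 40 psi. Kept in greenhouse; rated visually 4-5 weeks after treatment on a 0-9 scale versus control, repeat tests averaged.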
# [1] = test system: TRZAWR (Wheat, Winter, cv Riband); test: Postemergence herbicidal evaluation; format: in vivo, Triticum aestivum
# In short: as §1
# AMBEL (Ragweed, Common) = test: Postemergence herbicidal evaluation; format: in vivo, Ambrosia artemisifolia
# In short: as §1
# ECHCG (Barnyardgrass) [2] = test: Preemergence herbicidal evaluation; format: in vivo, Echinochloa crus-galli; conditions: rated 4-5 weeks after treatment
# In short: (§2)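 Scores use a 0–9 visual scale covering stand, vigor, malformation, size and chlorosis relative to controls, rated four to five weeks after treatment. Before emergence, soil-planted seeds were sprayed with compound in aqueous acetone at roughly 0.0156–0.500 kg/ha and held in the greenhouse.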
# CASOB (Sicklepod) = test: Preemergence herbicidal evaluation; format: in vivo, Cassia obtusifolia; conditions: rated 4-5 weeks after treatment
# In short: as §2
# [3] = test system: GLXMAW (Soybean, Williams); test: Postemergence herbicidal evaluation; format: in vivo, Glycine max, (L.) Merr. cv Williams
# In short: as §1
# [4] = test system: CHEAL (Lambsquarters, Common); test: Preemergence herbicidal evaluation; format: in vivo, Chenopodium album; conditions: rated 4-5 weeks after treatment
# In short: as §2
# ECHCG (Barnyardgrass) [5] = test: Postemergence herbicidal evaluation; format: in vivo, Echinochloa crus-galli
# In short: as §1
# GALAP (Galium) = test: Preemergence herbicidal evaluation; format: in vivo, Galium aparine; conditions: rated 4-5 weeks after treatment
# In short: as §2
# [6] = test system: ECHORC (Watergrass (Calif.)); test: Postemergence weed control under flooded paddy conditions; format: in vivo, Echinochloa oryzoides; conditions: postemergence weeds, 3-4 weeks after treatment
# In short: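 Herbicidal effect is judged by eye on a 0–9 scale versus control, 3–4 weeks after dosing. Dosing is into flood water kept 1.5–3 cm over the soil, at about 0.0313–0.500 kg/ha in aqueous/acetone 50/50 v/v, on 3–5 cm weeds and 1.5–2.5-leaf rice seedlings.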
# [7] = test system: IPOHE (Morningglory, Ivyleaf); test: Preemergence herbicidal evaluation; format: in vivo, Ipomoea hederacea; conditions: rated 4-5 weeks after treatment
# In short: as §2
# ABUTH (Velvetleaf) = test: Postemergence herbicidal evaluation; format: in vivo, Abutilon theophrasti
# In short: as §1
# [8] = test system: IPOHE (Morningglory, Ivyleaf); test: Postemergence herbicidal evaluation; format: in vivo, Ipomoea hederacea
# In short: as §1
# ZEAMX (Corn, Field) = test: Preemergence herbicidal evaluation; format: in vivo, Zea mays; conditions: rated 4-5 weeks after treatment
# In short: as §2
compound,measurement,setting,value
"C[C@@H](C(=O)O)N1C(=O)CS/C1=N/c1cc(-n2c(=O)cc(C(F)(F)F)n(C)c2=O)c(F)cc1Cl [Compound 51, 2-{{2-Chloro-5-[3,6-dihydro-3-methyl-2,6-dioxo-4-(trifluoromethyl)-1(2H)-pyrimidinyl]-4-fluoro-phenyl}imino}-α-methyl-4-oxo-3-thiazolidineacetic acid, L-]",Postemergence herbicidal rating SETVI,"SETVI (Foxtail, Green); Rate 0.0158 kg/ha",7.0
same,Postemergence herbicidal rating SETVI,"SETVI (Foxtail, Green); Rate 0.0315 kg/ha",9.0
same,Postemergence herbicidal rating SETVI,"SETVI (Foxtail, Green); Rate 0.0630 kg/ha",9.0
same,Postemergence herbicidal rating TRZAWR,[1]; Rate 0.0158 kg/ha,4.0
same,Postemergence herbicidal rating TRZAWR,[1]; Rate 0.0315 kg/ha,5.5
same,Postemergence herbicidal rating TRZAWR,[1]; Rate 0.0630 kg/ha,7.0
same,Postemergence herbicidal rating AMBEL,"AMBEL (Ragweed, Common); Rate 0.0158 kg/ha",6.0
same,Postemergence herbicidal rating AMBEL,"AMBEL (Ragweed, Common); Rate 0.0315 kg/ha",6.0
same,Postemergence herbicidal rating AMBEL,"AMBEL (Ragweed, Common); Rate 0.0630 kg/ha",9.0
same,Preemergence herbicidal rating ECHCG,ECHCG (Barnyardgrass) [2]; rate 0.0156 kg/ha,0.0
same,Preemergence herbicidal rating ECHCG,ECHCG (Barnyardgrass) [2]; rate 0.0313 kg/ha,0.0
same,Preemergence herbicidal rating ECHCG,ECHCG (Barnyardgrass) [2]; rate 0.0625 kg/ha,1.0
same,Preemergence herbicidal rating ECHCG,ECHCG (Barnyardgrass) [2]; rate 0.1250 kg/ha,1.0
same,Preemergence herbicidal rating ECHCG,ECHCG (Barnyardgrass) [2]; rate 0.2500 kg/ha,1.0
same,Preemergence herbicidal rating CASOB,CASOB (Sicklepod); rate 0.0156 kg/ha,0.0
same,Preemergence herbicidal rating CASOB,CASOB (Sicklepod); rate 0.0313 kg/ha,0.0
same,Preemergence herbicidal rating CASOB,CASOB (Sicklepod); rate 0.0625 kg/ha,0.0
same,Preemergence herbicidal rating CASOB,CASOB (Sicklepod); rate 0.1250 kg/ha,1.0
same,Preemergence herbicidal rating CASOB,CASOB (Sicklepod); rate 0.2500 kg/ha,1.0
same,Postemergence herbicidal rating GLXMAW,[3]; Rate 0.0158 kg/ha,6.0
same,Postemergence herbicidal rating GLXMAW,[3]; Rate 0.0315 kg/ha,8.0
same,Postemergence herbicidal rating GLXMAW,[3]; Rate 0.0630 kg/ha,8.0
same,Preemergence herbicidal rating CHEAL,[4]; rate 0.0156 kg/ha,3.0
same,Preemergence herbicidal rating CHEAL,[4]; rate 0.0313 kg/ha,9.0
same,Preemergence herbicidal rating CHEAL,[4]; rate 0.0625 kg/ha,9.0
same,Preemergence herbicidal rating CHEAL,[4]; rate 0.1250 kg/ha,9.0
same,Preemergence herbicidal rating CHEAL,[4]; rate 0.2500 kg/ha,9.0
same,Postemergence herbicidal rating ECHCG,ECHCG (Barnyardgrass) [5]; Rate 0.0158 kg/ha,4.0
same,Postemergence herbicidal rating ECHCG,ECHCG (Barnyardgrass) [5]; Rate 0.0315 kg/ha,5.0
same,Postemergence herbicidal rating ECHCG,ECHCG (Barnyardgrass) [5]; Rate 0.0630 kg/ha,9.0
same,Preemergence herbicidal rating GALAP,GALAP (Galium); rate 0.0156 kg/ha,0.0
same,Preemergence herbicidal rating GALAP,GALAP (Galium); rate 0.0313 kg/ha,0.0
same,Preemergence herbicidal rating GALAP,GALAP (Galium); rate 0.0625 kg/ha,5.0
same,Preemergence herbicidal rating GALAP,GALAP (Galium); rate 0.1250 kg/ha,7.0
same,Preemergence herbicidal rating GALAP,GALAP (Galium); rate 0.2500 kg/ha,9.0
same,Herbicidal rating ECHORC,[6]; rate 0.0625 kg/ha,0.0
same,Herbicidal rating ECHORC,[6]; rate 0.1250 kg/ha,0.0
same,Herbicidal rating ECHORC,[6]; rate 0.2500 kg/ha,0.0
same,Preemergence herbicidal rating IPOHE,[7]; rate 0.0156 kg/ha,2.0
same,Preemergence herbicidal rating IPOHE,[7]; rate 0.0313 kg/ha,9.0
same,Preemergence herbicidal rating IPOHE,[7]; rate 0.0625 kg/ha,9.0
same,Preemergence herbicidal rating IPOHE,[7]; rate 0.1250 kg/ha,9.0
same,Preemergence herbicidal rating IPOHE,[7]; rate 0.2500 kg/ha,9.0
same,Postemergence herbicidal rating ABUTH,ABUTH (Velvetleaf); Rate 0.0158 kg/ha,9.0
same,Postemergence herbicidal rating ABUTH,ABUTH (Velvetleaf); Rate 0.0315 kg/ha,9.0
same,Postemergence herbicidal rating ABUTH,ABUTH (Velvetleaf); Rate 0.0630 kg/ha,9.0
same,Postemergence herbicidal rating IPOHE,[8]; Rate 0.0158 kg/ha,9.0
same,Postemergence herbicidal rating IPOHE,[8]; Rate 0.0315 kg/ha,9.0
same,Postemergence herbicidal rating IPOHE,[8]; Rate 0.0630 kg/ha,9.0
same,Preemergence herbicidal rating ZEAMX,"ZEAMX (Corn, Field); rate 0.0156 kg/ha",1.0
same,Preemergence herbicidal rating ZEAMX,"ZEAMX (Corn, Field); rate 0.0313 kg/ha",1.0
same,Preemergence herbicidal rating ZEAMX,"ZEAMX (Corn, Field); rate 0.0625 kg/ha",1.0
same,Preemergence herbicidal rating ZEAMX,"ZEAMX (Corn, Field); rate 0.1250 kg/ha",2.0
same,Preemergence herbicidal rating ZEAMX,"ZEAMX (Corn, Field); rate 0.2500 kg/ha",6.0
